Measurements as given in patent publication US20110053897A1 (IRM LLC, priority 2009, published 2011).
Like-named read-outs stand apart in the source and are kept apart here.

Molecular target: T1, Syk kinase (Homo sapiens, UniProt P43405)
T1 construct: purchased
Experiment: Syk kinase inhibition, Caliper LabChip off-chip mobility-shift kinase assay
Format: biochemical
Details: read-out: Syk Enzyme IC50
Method: Compounds of the examples and Table 1 provided herein were assayed to measure their capacity to inhibit Syk kinase.
Compounds of the examples and Table 1 provided herein were assessed for their ability to inhibit Syk kinase by utilizing Caliper Life Sciences' proprietary LabChip™ technology. The off-chip incubation mobility-shift kinase assay uses a microfluidic chip to measure the conversion of a fluorescent peptide substrate to a phosphorylated product. The reaction mixture, from a microtiter plate well, is introduced through a capillary sipper onto the chip, where the nonphosphorylated substrate and phosphorylated product are separated by electrophoresis and detected via laser induced fluorescence. […] The phosphorylated product migrates through the chip faster than the non-phosphorylated substrate, and signals from the two forms of the peptide appear as distinct peaks. Caliper's data analysis software (HTSWA) determines peak heights, from which the ratio of product to the peak sum P/(P+S) and percent (%) conversion is calculated. This value is used to compare compound wells to control wells present on the plate, and thereby determine the % inhibition values for the compound. The formula used to calculate % inhibition is as follows, where C100% is the average % conversion of the 100% activity wells and Co% is the average % conversion of the 0% activity wells: (1−(% conversionofsample−C0%)/(C100%−C0%))*100.
Compounds (10 mM stocks in 100% DMSO) are diluted to a final concentration of 5 μM for single point inhibition experiments, and a series dilution of 10, 3, 1, 0.3, 0.1, 0.03, 0.01, 0.003, 0.001, 0.0003, 0.0001, and 0.00003 μM were made for IC50 determination. Generally, 12 μL of enzyme buffer containing purified kinase (various amount; various suppliers), 100 mM HEPES, pH 7.5, 1 mM DTT (Calbiochem, 2333153), 10 mM MgCl2 (Sigma, M-1028) or 10 mM MnCl2 (Sigma, M-1787) (assay specific), and 0.002% Brij-35 (Sigma, B4184) are added to each well. Compound and enzyme are allowed to pre-incubate for 15 minutes. 12 μL of peptide/ATP buffer containing 100 mM HEPES, pH 7.5, 1.5 μM fluorescein-labeled peptide (specific to kinase of interest), ATP (at KM apparent, Sigma, A9187), and 0.002% Brij-35 is then added to each well to initiate the reaction. The final concentration of DMSO in the well is 4%. Generally, reactions are incubated for 1 to 1.5 hours at room temperature to obtain adequate conversion of peptide to phosphorylated product in the linear range of the reaction. Reactions are terminated with the addition of 45 μL of Stop Buffer (containing 20 mM EDTA). Plates are then read on the LabChip 3000 using a 12-sipper LabChip. % conversion values and % inhibition values are obtained as provided and IC50 curves of compounds are generated using GraphPad Prism Version 4 or 5.01, or XLfit Version 4.3.2. When using GraphPad Prism, a nonlinear curve fit using the sigmoidal dose response—variable slope fit was used to graph IC50 curves and determine IC50 values and hillslopes. When using XLfit, Fit Model 205 (4-Parameter Logistic Model) is used to generate and fit the IC50 curve.

| IC50 [nM] | IC50 (Caliper LabChip assay) [nM] | SMILES |
| --- | --- | --- |
| 99 |  | COCC1(C(=O)N2CCC(c3ccc(Nc4nc(-c5cncc(OC)n5)cc5cc[nH]c(=O)c45)cc3C)CC2)CC1 [compound 16] |
| 64 |  | COc1cncc(-c2cc3cc[nH]c(=O)c3c(Nc3ccc(CCN4CCNCC4)cc3)n2)n1 [compound 54] |
|  | 64 | CC1(Nc2nc(Nc3cc(C4(O)COC4)ccn3)cc3ccn(CC(N)=O)c(=O)c23)CC1 [compound 617] |
| 249 |  | O=c1[nH]ccc2cc(C3CCNCC3)nc(Nc3ccc(N4CCOCC4)cc3)c12 [compound 2] |
|  | 15 | CC1(Nc2nc(-c3cnc(N)nc3)cc3ccn(C4COC4)c(=O)c23)CCC1 [compound 931] |
|  | 165 | CC(C)n1ccc2cc(Nc3cnccn3)nc(NC(C)(C)C)c2c1=O [compound 822] |
|  | 27 | CCn1ccc2cc(Nc3cnccn3)nc(NC(C)(C)CO)c2c1=O [compound 895] |
|  | 5 | CC(C)(C)Nc1nc(-c2cnc(N)nc2)cc2cc[nH]c(=O)c12 [compound 894] |
| 10 |  | CCN1CCC(c2ccc(Nc3nc(-c4cncc(OC)n4)cc4cc[nH]c(=O)c34)cc2C)CC1 [compound 137] |
| 21.5 |  | O=c1c2c(NCC(F)(F)F)nc(Nc3cnccn3)cc2ccn1CCO [compound 456] |
| 163 |  | Cc1ncc(-c2cc3cc[nH]c(=O)c3c(Nc3ccc(N4C[C@@H](C)O[C@@H](C)C4)nc3)n2)cn1 [compound 17] |
|  | 25 | CC(C)(C)Nc1nc(Nc2nccc(O)n2)cc2ccn(CCO)c(=O)c12 [compound 826] |
| 28 |  | Cn1ccc2cc(Nc3cc(Cl)ccn3)nc(N[C@H]3CC[C@H](O)CC3)c2c1=O [compound 385] |
|  | 333 | Cc1ccnc(Nc2cc3ccn(C)c(=O)c3c(Nc3ccc(OCCN4CCOCC4)cc3)n2)c1 [compound 653] |
| 55 |  | CC(CO)Nc1nc(Nc2ccccn2)cc2cc[nH]c(=O)c12 (centres unmarked) [compound 274] |
| 101 |  | COCCNc1nc(-c2cnc(N)nc2)cc2cc[nH]c(=O)c12 [compound 447] |
| 28 |  | O=c1[nH]ccc2cc(-c3cncnc3)nc(Nc3ccc(C4CCNCC4)c(F)c3)c12 [compound 194] |
| 879 |  | Cn1ccc2cc(Nc3cnccn3)nc(Nc3cccc(S(N)(=O)=O)c3)c2c1=O [compound 339] |
|  | 194 | Cn1ccc2cc(Nc3nccc(O)n3)nc(Nc3ccc(C(N)=O)cc3)c2c1=O [compound 804] |
| 11 |  | CCn1ccc2cc(Nc3cc(C)ccn3)nc(N[C@H]3CCC[C@H]3O)c2c1=O [compound 420] |
| 178 |  | CC(C)CNc1nc(-c2cnc(N)nc2)cc2cc[nH]c(=O)c12 [compound 186] |

| IC50 [nM] | IC50 (Caliper LabChip assay) [nM] | SMILES |
| --- | --- | --- |
| 225 |  | CCC(C)C(=O)N1CCC(c2ccc(Nc3nc(-c4cncc(OC)n4)cc4cc[nH]c(=O)c34)cc2C)CC1 (centres unmarked) [compound 76] |
| 162 |  | Nc1ncc(-c2cc3cc[nH]c(=O)c3c(NC3CCC3)n2)cn1 [compound 453] |
| 115 |  | COc1cncc(-c2cc3cc[nH]c(=O)c3c(Nc3ccc(C4CCN(CC5CCCO5)CC4)c(C)c3)n2)n1 (centres unmarked) [compound 77] |
| 67 |  | CCn1ccc2cc(Nc3cc(C)ccn3)nc(N[C@H]3CCC[C@H]3O)c2c1=O (racemic) [compound 360] |
|  | 27 | Cc1nc(-c2ccnc(Nc3cc4ccn(CCO)c(=O)c4c(NC(C)(C)C)n3)c2)no1 [compound 873] |
| 42 |  | CN(C)CCn1ccc2cc(Nc3cc(Cl)ccn3)nc(N[C@H]3CC[C@@H](O)CC3)c2c1=O [compound 388] |
| 91 |  | COc1cncc(-c2cc3cc[nH]c(=O)c3c(Nc3ccc(C4CCN(CC(=O)N(C)C)CC4)c(C)c3)n2)n1 [compound 167] |
| 114 |  | CC(C)(CO)Nc1nc(Nc2cnccn2)cc2ccn(CCO)c(=O)c12 [compound 473] |
|  | 120 | CC(C)(C)Nc1nc(Nc2cnccn2)cc2ccn(C3COC3)c(=O)c12 [compound 1014] |
| 37 |  | COc1cncc(-c2cc3cc[nH]c(=O)c3c(Nc3ccc(CCN4CCCN(C)CC4)cc3)n2)n1 [compound 434] |
|  | 88 | CCn1ccc2cc(Nc3cc(C)ccn3)nc(N[C@@H]3CC[C@@H](CO)C3)c2c1=O [compound 790] |
|  | 50 | CC(C)(C)Nc1nc(-c2cnc(N)nc2)cc2ccn(CC(O)C(F)(F)F)c(=O)c12 (centres unmarked) [compound 926] |
| 374 |  | CCC(C)(C)Nc1nc(Nc2cc(C)ccn2)cc2cc[nH]c(=O)c12 [compound 528] |
|  | 17 | CC(C)n1ccc2cc(Nc3cnccn3)nc(N[C@@H](C)CO)c2c1=O [compound 967] |
| 57 |  | COc1ncc(-c2cc3cc[nH]c(=O)c3c(Nc3ccc(C4CNC4)cc3)n2)cn1 [compound 130] |
| 40 |  | COc1cncc(-c2cc3cc[nH]c(=O)c3c(Nc3ccc(C4CCN(C(=O)[C@H](C)OC)CC4)c(C)c3)n2)n1 [compound 58] |
| 754 |  | CCOC(C)c1cc2cc[nH]c(=O)c2c(Nc2ccc(N3CCO[C@H](C)C3)c(C)c2)n1 (some centres unmarked) [compound 233] |
| 294 |  | Cc1ccnc(Nc2cc3ccn(C)c(=O)c3c(Nc3cccc(S(N)(=O)=O)c3)n2)c1 [compound 352] |
|  | 108 | CCCn1ccc2cc(-c3cnc(N)nc3)nc(NC(C)(C)C)c2c1=O [compound 914] |
| 150 |  | COCCNC(=O)C(C)N1CCC(c2ccc(Nc3nc(-c4cncc(OC)n4)cc4cc[nH]c(=O)c34)cc2C)CC1 (centres unmarked) [compound 123] |
|  | 13 | CC(C)n1ccc2cc(Nc3c[n+]([O-])ccn3)nc(N[C@H]3CC[C@@H](CO)C3)c2c1=O [compound 1018] |

| IC50 [nM] | IC50 (Caliper LabChip assay) [nM] | SMILES |
| --- | --- | --- |
| 584 |  | Cn1ccc2cc(Nc3cnccn3)nc(Nc3ccc(S(C)(=O)=O)cc3)c2c1=O [compound 336] |
|  | 57 | CC1(Cn2ccc3cc(-c4cnc(N)nc4)nc(NC4(C)CCC4)c3c2=O)COC1 [compound 932] |
|  | 85 | CCn1ccc2cc(Nc3cc(C(C)(C)O)ccn3)nc(NC3(CO)CCC3)c2c1=O [compound 703] |
|  | 94 | CC(C)(C)CNc1nc(-c2cnc(N)nc2)cc2ccn(CCO)c(=O)c12 [compound 911] |
| 199 |  | O=c1[nH]ccc2cc(Nc3ccccn3)nc(NC3CC3)c12 [compound 524] |
| 26 |  | Cc1ccnc(Nc2cc3cc[nH]c(=O)c3c(N[C@H]3CCC[C@H]3O)n2)c1 (racemic) [compound 271] |
|  | 22 | CS(=O)(=O)CCn1ccc2cc(Nc3cnccn3)nc(N[C@H]3CC[C@H](O)CC3)c2c1=O [compound 982] |
| 384 |  | CCn1ccc2cc(Nc3cnc(C)cn3)nc(N[C@@H](C)CO)c2c1=O [compound 394] |
|  | 208 | CC(C)(C)Nc1nc(Nc2ccc(C#N)cn2)cc2ccn(CCO)c(=O)c12 [compound 697] |
|  | 126 | CCn1ccc2cc(Nc3cc(C)ccn3)nc(Nc3ccc(C(=O)NCCO)cc3)c2c1=O [compound 834] |
| 2130 |  | CCOCCOc1cccc(Nc2nc(Nc3cnccn3)cc3ccn(C)c(=O)c23)c1 [compound 337] |
| 63.4 |  | Cc1ccnc(Nc2cc3ccn(CCO)c(=O)c3c(Nc3ccc(S(C)(=O)=O)cc3)n2)c1 [compound 404] |
|  | 17 | NC(=O)Cn1ccc2cc(Nc3cnccn3)nc(N[C@H]3C[C@@H](CO)C3)c2c1=O [compound 747] |
| 631 |  | CCN1CCN(CCc2ccc(Nc3nc(Nc4ccc(C(F)(F)F)cn4)cc4cc[nH]c(=O)c34)cc2)CC1 [compound 556] |
|  | 131 | CC(C)(C)Nc1nc(Nc2cc(C(C)(C)O)ccn2)cc2ccn(CCO)c(=O)c12 [compound 698, 8-(tert-butylamino)-2-(2-hydroxyethyl)-6-(4-(2-hydroxypropan-2-yl)pyridin-2-ylamino)-2,7-naphthyridin-1(2H)-one] |
|  | 54 | CC(C)(C)Nc1nc(Nc2cc(C(C)(C)O)ncn2)cc2ccn(C[C@H](O)CO)c(=O)c12 [compound 740] |
| 63 |  | Cn1ccc2cc(Nc3cnccn3)nc(N[C@H]3CCOC3)c2c1=O [compound 329] |
|  | 26 | CC(C)(C)Nc1nc(-c2cnc(N)nc2)cc2ccn(CCCO)c(=O)c12 [compound 915] |
| 398 |  | CCOCCc1cc2cc[nH]c(=O)c2c(Nc2ccc(C3CCN(C4CC4)CC3)c(C)c2)n1 [compound 227] |
|  | 272 | Cc1ccnc(Nc2cc3ccn(C(C)C)c(=O)c3c(NC(C)(C)C)n2)c1 [compound 821] |
